Laboratory results published in the supplement of paper PMC9663587.

Assays:
[1] = compound: COc1cccc(OCCCN)c1-c1cc(Nc2cnc(C#N)cn2)n[nH]1
[2] = compound: N.N.Cl[Pt]Cl [Cisplatin]
[3] = compound: CC1=C(N=C(N=C1N)[C@H](CC(=O)N)NC[C@@H](C(=O)N)N)C(=O)N[C@@H]([C@H](C2=CN=CN2)OC3C(C(C(C(O3)CO)O)O)OC4C(C(C(C(O4)CO)O)OC(=O)N)O)C(=O)N[C@H](C)[C@H]([C@H](C)C(=O)N[C@@H]([C@@H](C)O)C(=O)NCCC5=NC(=CS5)C6=NC(=CS6)C(=O)NCCC[S+](C)C)O [Bleomycin]; conditions: main component drawn
[4] = compound: CCC(=O)Nc1ccc(C(=O)Nc2ccc(Nc3ncc4c(n3)N(C)c3ccc(C)cc3C(=O)N4C)cc2)cc1 [FMF-03-145-1]
[5] = compound: COc1cc([C@@H]2c3cc4c(cc3[C@@H](O[C@@H]3O[C@@H]5CO[C@@H](C)O[C@H]5[C@H](O)[C@H]3O)[C@H]3COC(=O)[C@H]23)OCO4)cc(OC)c1O [Etoposide]
[6] = compound: CC[C@@]1(O)C(=O)OCc2c1cc1n(c2=O)Cc2cc3c(CN(C)C)c(O)ccc3nc2-1 [Topotecan]
[7] = compound: T1, C=CC(=O)Nc1ccc(C(=O)Nc2[nH]nc3c2CN(C(=O)N[C@H](CN(C)C)c2ccccc2)C3(C)C)cc1 [YKL-5-124]
[8] = compound: T1, YKL-5-124; assay: increase in dead-cell fraction, 72 h; higher = more death;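 also: breast cancer cell lines in 384-well plates, stained with Hoechst plus LIVE/DEAD far red dye and imaged, cells above an LDR intensity threshold counted dead, Hoechst-negative corpses included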
[9] = compound: CN(C)C/C=C/C(=O)Nc1ccc(C(=O)N2CCC[C@@H](Nc3ncc(Cl)c(-c4c[nH]c5ccccc45)n3)C2)cc1 [THZ531]; assay: as above
[10] = compound: CO[C@H]1C[C@@H]2CC[C@@H](C)[C@@](O)(O2)C(=O)C(=O)N2CCCC[C@H]2C(=O)O[C@H]([C@H](C)C[C@@H]2CC[C@@H](OCCO)[C@H](OC)C2)CC(=O)[C@H](C)/C=C(\C)[C@@H](O)[C@@H](OC)C(=O)[C@H](C)C[C@H](C)/C=C/C=C/C=C/1C [Everolimus]
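For GR50, 72 h in this document: breast cancer and non-malignant breast epithelial cell lines, Deep Dye Drop or Dye Drop imaging, nine half-log doses, GR normalized to time-zero plates and DMSO-only controls.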

Cell Line	GR50, 72 h [1]	GR50, 72 h [2]	GR50, 72 h [3]	GR50, 72 h [4]	GR50, 72 h [5]	GR50, 72 h [6]	GR50, 72 h [7]	increase in dead-cell fraction ([8]; 0.001 µM)	increase in dead-cell fraction ([8]; 0.003162 µM)	increase in dead-cell fraction ([8]; 0.01 µM)	increase in dead-cell fraction ([8]; 0.03162 µM)	increase in dead-cell fraction ([8]; 0.1 µM)	increase in dead-cell fraction ([8]; 0.3162 µM)	increase in dead-cell fraction ([8]; 1 µM)	increase in dead-cell fraction ([8]; 3.162 µM)	increase in dead-cell fraction ([8]; 10 µM)	increase in dead-cell fraction ([9]; 0.0001 µM)	increase in dead-cell fraction ([9]; 0.0003162 µM)	increase in dead-cell fraction ([9]; 0.001 µM)	increase in dead-cell fraction ([9]; 0.003162 µM)	increase in dead-cell fraction ([9]; 0.01 µM)	increase in dead-cell fraction ([9]; 0.03162 µM)	increase in dead-cell fraction ([9]; 0.1 µM)	increase in dead-cell fraction ([9]; 0.3162 µM)	increase in dead-cell fraction ([9]; 1 µM)	GR50, 72 h [10]
HTERT_HME1	0.000593 µM	1.12 µM	0.207 µM	0.00584 µM	0.138 µM	0.00727 µM	< 0.001 µM	0.0989	0.131	0.165	0.151	0.181	0.224	0.144	0.293	0.304	-0.0002	-0.0145	0.0054	-0.0171	-0.0178	0.0065	0.0042	0.175	0.386	
MDAMB361	0.000459 µM	2.63 µM	0.758 µM	0.00904 µM	1.19 µM	0.0114 µM	< 0.001 µM	0.0281	0.0171	0.0264	0.0267	0.0421	0.0191	0.0241	0.0411	0.371	-0.004	-0.0021	0.0045	-0.0062	-0.0039	0.0484	0.454	0.219	0.106	< 0.001 µM
MDAMB436	0.000612 µM	0.417 µM	0.855 µM	0.00578 µM	0.26 µM	0.00594 µM	0.0324 µM	-0.0039	0.0007	0.019	0.0153	0.0342	0.0446	0.0289	0.027	0.132	-0.0141	-0.004	0.0035	-0.0059	-0.0057	0.0007	0.0043	0.0247	0.0705	> 10 µM
MDAMB453	0.0005 µM	3.4 µM	1.31 µM	0.00648 µM	0.383 µM	0.00669 µM	< 0.001 µM	0.007	0.013	0.0243	0.0344	0.0489	0.033	0.0346	0.0296	0.275	0.0012	0.0037	0.0069	0.0027	0.0057	0.0394	0.16	0.187	0.157	
SUM159	0.000711 µM	4.32 µM	0.262 µM	0.00548 µM	0.398 µM	0.0182 µM	< 0.001 µM	0.08	0.19	0.247	0.231	0.221	0.273	0.246	0.332	0.436	0.0035	-0.0023	-0.002	-0.003	0.0062	-0.0033	-0.0055	-0.0016	0.0161	> 10 µM
MDAMB231	0.000148 µM	2.41 µM	6.32 µM		0.704 µM	0.0297 µM	< 0.001 µM	0.0171	0.0093	0.016	0.0176	0.0238	0.0218	0.0259	0.0247	0.155	-0.0027	-0.0002	0.002	-0.0005	-0.0004	0.0008	0.0103	0.0403	0.224	> 10 µM
HCC1419	0.000648 µM	1.79 µM	4.04 µM	0.00703 µM	0.736 µM	0.00719 µM	< 0.001 µM	0.0323	0.0181	0.0297	0.0399	0.0564	0.0505	0.0568	0.0662	0.187	-0.0026	-0.0053	0.0001	-0.0057	-0.0018	-0.001	0.0145	0.0751	0.14	
MDAMB468		1.26 µM	0.823 µM	0.00536 µM	0.488 µM	0.0158 µM	< 0.001 µM	0.0818	0.116	0.0906	0.163	0.171	0.183	0.231	0.213	0.386	-0.0128	0.0007	-0.006	0.0023	0.0064	0.0382	0.104	0.168	0.141	> 10 µM
HCC38	0.000505 µM	0.993 µM	0.199 µM	0.00507 µM	0.334 µM	0.00681 µM	< 0.001 µM	0.0525	0.0845	0.102	0.109	0.115	0.184	0.197	0.147	0.407	-0.0063	0.0002	0.0018	0.0016	-0.0096	0.0087	0.0251	0.156	0.327	
CAMA1	0.00063 µM	0.919 µM	1.69 µM	0.00649 µM	0.155 µM	0.00321 µM		0.0009	0.0059	0.0122	0.0047	0.006	0.0148	-0.0034	0.01	0.322	0.001	-0.0014	-0.0002	-0.005	0.0035	0.0054	0.0126	0.0499	0.189	
BT20	0.000944 µM	0.791 µM	0.488 µM		0.301 µM	0.0123 µM	0.0135 µM	0.0021	0.0037	0.0071	0.0095	0.0196	0.01	0.0231	0.0292	0.0824	-0.0017	0.0012	-0.0051	0.0009	-0.0031	-0.0002	0.003	0.0032	0.0097	
SUM1315	0.000483 µM	1.28 µM	0.214 µM	0.0047 µM	0.29 µM	0.0118 µM	0.0168 µM	0.0195	0.0396	0.0503	0.0215	0.0766	0.0731	0.171	0.134	0.364	0.0119	-0.0037	-0.0061	0.0067	0.001	-0.0178	-0.0022	0.0155	0.204	
